# Patent US10947252B2, “Inhibitors of KEAP1-Nrf2 protein-protein interaction” (Janssen Pharmaceutica NV, priority 2018, dated 2021)
# Tested on: Glo-Response ARE-luc2P HEK293 cell line
# Assay: ARE luciferase reporter cell-based assay;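 note: luciferase signal tracks Nrf2 activation of the ARE once compounds disrupt KEAP1-Nrf2 binding, read with One-Glo reagent, DMSO serving as low control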
# Settings: 24 hours, average of results obtained
row,Structure (SMILES),EC50 [nM]
1,"Cc1ccc([C@H](CC(=O)O)c2ccn3c(C(F)(F)F)nnc3c2C)cc1CN1C[C@@H]2COCCN2c2ncccc2S1(=O)=O (relative stereo) [Example 276, (*S)-3-(3-(((*R)-5,5-Dioxido-7a,8,10,11-tetrahydro-[1,4]oxazino[3,4-d]pyrido[2,3-f][1,2,5]thiadiazepin-6(7H)-yl)methyl)-4-methylphenyl)-3-(8-methyl-3-(trifluoromethyl)-[1,2,4]triazolo[4,3-a]pyridin-7-yl)propanoic Acid]",112
2,"Cc1ccc([C@@H](CC(=O)O)c2ccn3c(C(F)(F)F)nnc3c2C)cc1CN1C[C@@H]2COCCN2c2ncccc2S1(=O)=O (relative stereo) [Example 277, (*R)-3-(3-(((*R)-5,5-Dioxido-7a,8,10,11-tetrahydro-[1,4]oxazino[3,4-d]pyrido[2,3-f][1,2,5]thiadiazepin-6(7H)-yl)methyl)-4-methylphenyl)-3-(8-methyl-3-(trifluoromethyl)-[1,2,4]triazolo[4,3-a]pyridin-7-yl)propanoic Acid]",102

# Same assay, conditions: Homo sapiens, HEK293, 24 h, average of results obtained
row,Structure (SMILES),EC50 [nM]
1,"CCn1nnc2c(C)c([C@H](CC(=O)O)c3ccc(C)c(CN4C[C@@H]5CCCN5c5ccccc5S4(=O)=O)c3)ccc21 (relative stereo) [Example 149, (*R)-3-[3-[(5,5-Dioxo-7a,8,9,10-tetrahydro-7H-pyrrolo[2,1-d][1,2,5]benzothiadiazepin-6-yl)methyl]-4-methyl-phenyl]-3-(1-ethyl-4-methyl-benzotriazol-5-yl)propanoic Acid]",250
2,"Cc1ccc([C@H](CC(=O)O)c2ccn3c(C(F)(F)F)nnc3c2C)cc1CN1C[C@]2(C)CCCN2c2ncccc2S1(=O)=O (relative stereo) [Example 186, (*S)-3-(4-Methyl-3-(((*S)-7a-methyl-5,5-dioxido-7a,8,9,10-tetrahydropyrido[2,3-f]pyrrolo[2,1-d][1,2,5]thiadiazepin-6(7H)-yl)methyl)phenyl)-3-(8-methyl-3-(trifluoromethyl)-[1,2,4]triazolo[4,3-a]pyridin-7-yl)propanoic Acid]",47
3,"Cc1ccc([C@H](CC(=O)O)c2ccn3c(C(F)(F)F)nnc3c2C)cc1CN1C[C@H]2CCCCN2c2ncc(Cl)cc2S1(=O)=O (relative stereo) [Example 193, (*S)-3-(3-(((*R)-3-Chloro-5,5-dioxido-7,7a,8,9,10,11-hexahydro-6H-dipyrido[2,1-d:2′,3′-f][1,2,5]thiadiazepin-6-yl)methyl)-4-methylphenyl)-3-(8-methyl-3-(trifluoromethyl)-[1,2,4]triazolo[4,3-a]pyridin-7-yl)propanoic Acid]",1.7
4,"CC[C@@H]1CN(Cc2cc([C@H](CC(=O)O)c3ccn4c(C(F)(F)F)nnc4c3C)ccc2C)S(=O)(=O)c2cc(C)cnc2O1 (relative stereo) [Example 194, (*S)-3-(3-(((*R)-4-Ethyl-8-methyl-1,1-dioxido-3,4-dihydro-2H-pyrido[2,3-b][1,4,5]oxathiazepin-2-yl)methyl)-4-methylphenyl)-3-(8-methyl-3-(trifluoromethyl)-[1,2,4]triazolo[4,3-a]pyridin-7-yl)propanoic Acid]",2
5,"Cc1ccc([C@H](CC(=O)O)c2ccn3c(C(F)(F)F)nnc3c2C)cc1CN1C[C@@H]2CCCCN2c2ncc(C(F)(F)F)cc2S1(=O)=O (relative stereo) [Example 198, (*S)-3-(3-(((*S)-5,5-Dioxido-3-(trifluoromethyl)-7,7a,8,9,10,11-hexahydro-6H-dipyrido[2,1-d:2′,3′-f][1,2,5]thiadiazepin-6-yl)methyl)-4-methylphenyl)-3-(8-methyl-3-(trifluoromethyl)-[1,2,4]triazolo[4,3-a]pyridin-7-yl)propanoic Acid]",5.3
6,"Cc1ccc([C@H](CC(=O)O)c2ccn3c(C(F)(F)F)nnc3c2C)cc1CN1C[C@H]2CCCCN2c2ncc(C(F)(F)F)cc2S1(=O)=O (relative stereo) [Example 199, (*S)-3-(3-(((*R)-5,5-Dioxido-3-(trifluoromethyl)-7,7a,8,9,10,11-hexahydro-6H-dipyrido[2,1-d:2′,3′-f][1,2,5]thiadiazepin-6-yl)methyl)-4-methylphenyl)-3-(8-methyl-3-(trifluoromethyl)-[1,2,4]triazolo[4,3-a]pyridin-7-yl)propanoic Acid]",3.3
7,"Cc1ccc([C@H](CC(=O)O)c2ccn3c(C(F)(F)F)nnc3c2C)cc1CN1C[C@@H]2CCCCN2c2nc(C#N)ccc2S1(=O)=O (relative stereo) [Example 202, (*S)-3-(3-(((*S)-2-Cyano-5,5-dioxido-7,7a,8,9,10,11-hexahydro-6H-dipyrido[2,1-d:2′,3′-f][1,2,5]thiadiazepin-6-yl)methyl)-4-methylphenyl)-3-(8-methyl-3-(trifluoromethyl)-[1,2,4]triazolo[4,3-a]pyridin-7-yl)propanoic Acid]",13
8,"Cc1ccc([C@H](CC(=O)O)c2ccn3c(C(F)(F)F)nnc3c2C)cc1CN1C[C@@H]2CCCCN2c2nc(C(N)=O)ccc2S1(=O)=O (relative stereo) [Example 203, (*S)-3-(3-(((*S)-2-Carbamoyl-5,5-dioxido-7,7a,8,9,10,11-hexahydro-6H-dipyrido[2,1-d:2′,3′-f][1,2,5]thiadiazepin-6-yl)methyl)-4-methylphenyl)-3-(8-methyl-3-(trifluoromethyl)-[1,2,4]triazolo[4,3-a]pyridin-7-yl)propanoic Acid]",150
9,"Cc1ccc([C@H](CC(=O)O)c2ccn3c(C(F)(F)F)nnc3c2C)cc1CN1C[C@H]2CCCCN2c2nc(C#N)ccc2S1(=O)=O (relative stereo) [Example 204, (*S)-3-(3-(((*R)-2-Cyano-5,5-dioxido-7,7a,8,9,10,11-hexahydro-6H-dipyrido[2,1-d:2′,3′-f][1,2,5]thiadiazepin-6-yl)methyl)-4-methylphenyl)-3-(8-methyl-3-(trifluoromethyl)-[1,2,4]triazolo[4,3-a]pyridin-7-yl)propanoic Acid]",5.9
10,"Cc1ccc([C@H](CC(=O)O)c2ccn3c(C(F)(F)F)nnc3c2C)cc1CN1C[C@@H]2CCCN2c2ncc(C#N)cc2S1(=O)=O (relative stereo) [Example 206, (*S)-3-(3-(((S)-3-Cyano-5,5-dioxido-7a,8,9,10-tetrahydropyrido[2,3-f]pyrrolo[2,1-d][1,2,5]thiadiazepin-6(7H)-yl)methyl)-4-methylphenyl)-3-(8-methyl-3-(trifluoromethyl)-[1,2,4]triazolo[4,3-a]pyridin-7-yl)propanoic Acid]",14
11,"Cc1ccc([C@H](CC(=O)O)c2ccc3c(nnn3C3CC3)c2C)cc1CN1C[C@]2(C)CCCN2c2ncccc2S1(=O)=O (relative stereo) [Example 219, (*S)-3-(1-Cyclopropyl-4-methyl-1H-benzo[d][1,2,3]triazol-5-yl)-3-(4-methyl-3-(((*S)-7a-methyl-5,5-dioxido-7a,8,9,10-tetrahydropyrido[2,3-f]pyrrolo[2,1-d][1,2,5]thiadiazepin-6(7H)-yl)methyl)phenyl)propanoic Acid]",4.5
12,"Cc1ccc([C@H](CC(=O)O)c2ccn3c(C(F)(F)F)nnc3c2C)cc1CN1C[C@@H]2CCCCN2c2ccccc2S1(=O)=O (relative stereo) [Example 299, (*S)-3-(3-(((*S)-5,5-Dioxido-7,7a,8,9,10,11-hexahydro-6H-benzo[f]pyrido[2,1-d][1,2,5]thiadiazepin-6-yl)methyl)-4-methylphenyl)-3-(8-methyl-3-(trifluoromethyl)-[1,2,4]triazolo[4,3-a]pyridin-7-yl)propanoic Acid]",11.4
13,"Cc1cnc2c(c1)S(=O)(=O)N(Cc1cc([C@H](CC(=O)O)c3ccn4c(C(F)(F)F)nnc4c3C)ccc1C)C[C@@H]1CCCCN21 (relative stereo) [Example 307, (*S)-3-(4-methyl-3-(((*S)-3-methyl-5,5-dioxido-7,7a,8,9,10,11-hexahydro-6H-dipyrido[2,1-d:2′,3′-f][1,2,5]thiadiazepin-6-yl)methyl)phenyl)-3-(8-methyl-3-(trifluoromethyl)-[1,2,4]triazolo[4,3-a]pyridin-7-yl)propanoic Acid]",2
14,"Cc1ccc([C@H](CC(=O)O)c2ccn3c(C(F)(F)F)nnc3c2C)cc1CN1C[C@@H]2CCCCN2c2ncc(F)cc2S1(=O)=O (relative stereo) [Example 309, (*S)-3-(3-(((*S)-3-fluoro-5,5-dioxido-7,7a,8,9,10,11-hexahydro-6H-dipyrido[2,1-d:2′,3′-f][1,2,5]thiadiazepin-6-yl)methyl)-4-methylphenyl)-3-(8-methyl-3-(trifluoromethyl)-[1,2,4]triazolo[4,3-a]pyridin-7-yl)propanoic Acid]",0.9
15,"Cc1ccc([C@H](CC(=O)O)c2ccn3c(C(F)(F)F)nnc3c2C)cc1CN1C[C@H]2CCCCN2c2ncc(F)cc2S1(=O)=O (relative stereo) [Example 310, (*S)-3-(3-(((*R)-3-fluoro-5,5-dioxido-7,7a,8,9,10,11-hexahydro-6H-dipyrido[2,1-d:2′,3′-f][1,2,5]thiadiazepin-6-yl)methyl)-4-methylphenyl)-3-(8-methyl-3-(trifluoromethyl)-[1,2,4]triazolo[4,3-a]pyridin-7-yl)propanoic Acid]",3
16,"Cc1ccc([C@H](CC(=O)O)c2ccn3c(C(F)F)nnc3c2C)cc1CN1C[C@@H]2CCCCN2c2ncccc2S1(=O)=O (relative stereo) [Example 447, (*S)-3-(3-(Difluoromethyl)-8-methyl-[1,2,4]triazolo[4,3-a]pyridin-7-yl)-3-(3-(((*S)-5,5-dioxido-7,7a,8,9,10,11-hexahydro-6H-dipyrido[2,1-d:2′,3′-f][1,2,5]thiadiazepin-6-yl)methyl)-4-methylphenyl)propanoic Acid]",2.93
17,"Cc1ccc([C@H](CC(=O)O)c2ccn3c(C(F)(F)F)nnc3c2C)cc1CN1C[C@H]2CCC(F)(F)CN2c2ncccc2S1(=O)=O (relative stereo) [Example 454, (*S)-3-(3-(((*R)-10,10-difluoro-5,5-dioxido-7,7a,8,9,10,11-hexahydro-6H-dipyrido[2,1-d:2′,3′-f][1,2,5]thiadiazepin-6-yl)methyl)-4-methylphenyl)-3-(8-methyl-3-(trifluoromethyl)-[1,2,4]triazolo[4,3-a]pyridin-7-yl)propanoic Acid]",38.3
